# From ChEMBL document CHEMBL1201862, “PubChem BioAssay data set” (2004)
#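 Cultured in 96-well plates, cells were exposed to test compound for 48 hours across five concentrations. At the GI50, growth is halved.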 The source made the active and inactive calls. Rule as the data show it: active = GI50 up to about 1.1 µM and inactive = higher.
# How the values were obtained:
# Test in all cases: NCI-60 cell line screen, 48 h
# NCI-H460 = tested on: NCI-H460
# NCI-H522 = tested on: NCI-H522
# UACC-62 = tested on: UACC-62
# UO-31 = tested on: UO-31
# 786-0 = tested on: 786-0
# DU-145 = tested on: DU-145
# SK-MEL-5 = tested on: SK-MEL-5
# SF-539 = tested on: SF-539
# Hs-578T = tested on: Hs-578T
# TK-10 = tested on: TK-10
# HOP-62 = tested on: HOP-62
# SK-MEL-2 = tested on: SK-MEL-2
# COLO 205 = tested on: COLO 205
# KM12 = tested on: KM12
# OVCAR-4 = tested on: OVCAR-4
# OVCAR-3 = tested on: OVCAR-3
# ACHN = tested on: ACHN
# NCI-H23 = tested on: NCI-H23
# NCI-H226 = tested on: NCI-H226
# M14 = tested on: M14
# OVCAR-5 = tested on: OVCAR-5
# BT-549 = tested on: BT-549
# HOP-92 = tested on: HOP-92
# SN12C = tested on: SN12C
# T47D = tested on: T47D
# SNB-75 = tested on: SNB-75
# U-251 = tested on: U-251
# SK-MEL-28 = tested on: SK-MEL-28
# SW-620 = tested on: SW-620
# OVCAR-8 = tested on: OVCAR-8
# MCF7 = tested on: MCF7
# IGROV-1 = tested on: IGROV-1
# EKVX = tested on: EKVX
# CCRF-CEM = tested on: CCRF-CEM
# HCC 2998 = tested on: HCC 2998
# SR = tested on: SR
# A498 = tested on: A498
# PC-3 = tested on: PC-3
# NCI/ADR-RES = tested on: NCI/ADR-RES
# SF-295 = tested on: SF-295
# LOX IMVI = tested on: LOX IMVI
# MOLT-4 = tested on: MOLT-4
# SK-OV-3 = tested on: SK-OV-3
# UACC-257 = tested on: UACC-257
# HL-60 = tested on: HL-60
# SF-268 = tested on: SF-268
# RXF 393 = tested on: RXF 393
# HCT-116 = tested on: HCT-116
# MDA-MB-435 = tested on: MDA-MB-435
# MDA-MB-231 = tested on: MDA-MB-231
# HCT-15 = tested on: HCT-15
# RPMI-8226 = tested on: RPMI-8226
# K562 = tested on: K562
# SNB-19 = tested on: SNB-19
# CAKI-1 = tested on: CAKI-1
# A549 = tested on: A549
# HT-29 = tested on: HT-29
# MDA-N = tested on: MDA-N
# Malme-3M = tested on: Malme-3M
structure (smiles),measurement,setting,value
c1ccc(CNc2c3c(nc4ccccc24)CCC3)cc1,GI50,NCI-H460,10.6 µM (inactive)
same,GI50,NCI-H522,15.7 µM (inactive)
same,GI50,UACC-62,12.8 µM (inactive)
same,GI50,UO-31,11.4 µM (inactive)
same,GI50,786-0,13.4 µM (inactive)
same,GI50,DU-145,21.5 µM (inactive)
same,GI50,SK-MEL-5,11.7 µM (inactive)
same,GI50,SF-539,14.5 µM (inactive)
same,GI50,Hs-578T,27.2 µM (inactive)
same,GI50,TK-10,13 µM (inactive)
same,GI50,HOP-62,8.97 µM (inactive)
same,GI50,SK-MEL-2,13.8 µM (inactive)
same,GI50,COLO 205,10.4 µM (inactive)
same,GI50,KM12,15.6 µM (inactive)
same,GI50,OVCAR-4,15 µM (inactive)
same,GI50,OVCAR-3,12.2 µM (inactive)
same,GI50,ACHN,17.5 µM (inactive)
same,GI50,NCI-H23,16.3 µM (inactive)
same,GI50,NCI-H226,17.1 µM (inactive)
same,GI50,M14,13.7 µM (inactive)
same,GI50,OVCAR-5,15.5 µM (inactive)
same,GI50,BT-549,17.9 µM (inactive)
same,GI50,HOP-92,10.4 µM (inactive)
same,GI50,SN12C,16.4 µM (inactive)
same,GI50,T47D,12.7 µM (inactive)
same,GI50,SNB-75,18 µM (inactive)
same,GI50,U-251,14.9 µM (inactive)
same,GI50,SK-MEL-28,11.8 µM (inactive)
same,GI50,SW-620,11.9 µM (inactive)
same,GI50,OVCAR-8,14.1 µM (inactive)
same,GI50,MCF7,13.8 µM (inactive)
same,GI50,IGROV-1,15.8 µM (inactive)
same,GI50,EKVX,12.1 µM (inactive)
same,GI50,CCRF-CEM,3.79 µM (inactive)
same,GI50,HCC 2998,13.5 µM (inactive)
same,GI50,SR,13.4 µM (inactive)
same,GI50,A498,11.7 µM (inactive)
same,GI50,PC-3,13.2 µM (inactive)
same,GI50,NCI/ADR-RES,14.2 µM (inactive)
same,GI50,SF-295,6.84 µM (inactive)
same,GI50,LOX IMVI,14 µM (inactive)
same,GI50,MOLT-4,13.1 µM (inactive)
same,GI50,SK-OV-3,15.4 µM (inactive)
same,GI50,UACC-257,13.6 µM (inactive)
same,GI50,HL-60,0.0303 µM (active)
same,GI50,SF-268,21.7 µM (inactive)
same,GI50,RXF 393,14 µM (inactive)
same,GI50,HCT-116,9.1 µM (inactive)
same,GI50,MDA-MB-435,15.3 µM (inactive)
same,GI50,MDA-MB-231,12.9 µM (inactive)
same,GI50,HCT-15,18.9 µM
same,GI50,RPMI-8226,10 µM (inactive)
same,GI50,K562,5.58 µM (inactive)
same,GI50,SNB-19,23 µM (inactive)
same,GI50,CAKI-1,15.3 µM (inactive)
same,GI50,A549,15.1 µM (inactive)
same,GI50,HT-29,5.52 µM (inactive)
same,GI50,MDA-N,14.7 µM (inactive)
same,GI50,Malme-3M,17.3 µM (inactive)
CC(C)OC(=O)C(NC(=O)C(CC(=O)OCc1ccccc1)NC(=O)OCc1ccccc1)NC(=O)C1C(C)(C)CCC1(C)C (stereo not drawn),GI50,NCI-H460,16.7 µM (inactive)
same,GI50,NCI-H522,11.6 µM (inactive)
same,GI50,UACC-62,20.7 µM (inactive)
same,GI50,UO-31,4.84 µM (inactive)
same,GI50,786-0,2.22 µM (inactive)
same,GI50,DU-145,22.9 µM (inactive)
same,GI50,SK-MEL-5,13.7 µM (inactive)
same,GI50,SF-539,2.81 µM (inactive)
same,GI50,Hs-578T,6.98 µM (inactive)
same,GI50,TK-10,18.8 µM (inactive)
same,GI50,HOP-62,6.56 µM (inactive)
same,GI50,SK-MEL-2,19.5 µM (inactive)
same,GI50,COLO 205,2.99 µM (inactive)
same,GI50,KM12,9.02 µM (inactive)
same,GI50,OVCAR-4,3.55 µM (inactive)
same,GI50,OVCAR-3,2.77 µM (inactive)
same,GI50,ACHN,3.56 µM (inactive)
same,GI50,NCI-H23,10.2 µM (inactive)
same,GI50,NCI-H226,7.21 µM (inactive)
same,GI50,M14,21.5 µM (inactive)
same,GI50,OVCAR-5,14.8 µM (inactive)
same,GI50,BT-549,17.4 µM (inactive)
same,GI50,HOP-92,11 µM (inactive)
same,GI50,SN12C,3.84 µM (inactive)
same,GI50,T47D,26.5 µM (inactive)
same,GI50,SNB-75,2.68 µM (inactive)
same,GI50,U-251,2.14 µM (inactive)
same,GI50,SK-MEL-28,> 42 µM (inactive)
same,GI50,SW-620,3.23 µM (inactive)
same,GI50,OVCAR-8,2 µM (inactive)
same,GI50,MCF7,14.9 µM (inactive)
same,GI50,IGROV-1,13.7 µM (inactive)
same,GI50,EKVX,3.85 µM (inactive)
same,GI50,CCRF-CEM,3.18 µM (inactive)
same,GI50,HCC 2998,24.9 µM (inactive)
same,GI50,SR,2.64 µM (inactive)
same,GI50,A498,2.5 µM (inactive)
same,GI50,PC-3,2.8 µM (inactive)
same,GI50,NCI/ADR-RES,4.98 µM (inactive)
same,GI50,SF-295,14.1 µM (inactive)
same,GI50,LOX IMVI,4.56 µM (inactive)
same,GI50,MOLT-4,8.04 µM (inactive)
same,GI50,SK-OV-3,4.18 µM (inactive)
same,GI50,UACC-257,30.3 µM (inactive)
same,GI50,HL-60,3.76 µM (inactive)
same,GI50,SF-268,15 µM (inactive)
same,GI50,RXF 393,4.43 µM (inactive)
same,GI50,HCT-116,3.61 µM (inactive)
same,GI50,MDA-MB-435,23.8 µM (inactive)
same,GI50,MDA-MB-231,2.1 µM (inactive)
same,GI50,HCT-15,11 µM
same,GI50,RPMI-8226,7.5 µM (inactive)
same,GI50,K562,4.31 µM (inactive)
same,GI50,SNB-19,4.29 µM (inactive)
same,GI50,CAKI-1,9.98 µM (inactive)
same,GI50,A549,2.22 µM (inactive)
same,GI50,HT-29,3.58 µM (inactive)
same,GI50,MDA-N,10.1 µM (inactive)
same,GI50,Malme-3M,18 µM (inactive)
